Common to all, as to experiment: Nanosyn kinase profiling
Assay type in all cases: biochemical
What all share (details): read-out: Percentage inhibition; for inhibition at 0.1 µM: 0.1 µM inhibitor; for inhibition at 1 µM: 1 µM inhibitor

The target in one experiment is T1, AURKC (Homo sapiens, UniProt Q9UQB9).
T1 construct: purchased Nanosyn (enzymatic panel); SGC in-house recombinant human kinases (DSF panel); Invitrogen (ALK1-6)
T1 sequence (Q9UQB9 1-309): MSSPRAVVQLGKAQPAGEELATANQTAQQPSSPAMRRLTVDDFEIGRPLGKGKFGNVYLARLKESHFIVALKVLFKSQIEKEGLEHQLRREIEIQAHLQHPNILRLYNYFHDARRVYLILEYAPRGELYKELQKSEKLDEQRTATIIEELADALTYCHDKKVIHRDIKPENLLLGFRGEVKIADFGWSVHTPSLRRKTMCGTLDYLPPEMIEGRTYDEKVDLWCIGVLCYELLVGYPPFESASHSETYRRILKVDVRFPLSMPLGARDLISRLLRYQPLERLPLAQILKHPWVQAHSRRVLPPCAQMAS
The essentials: (§1)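 Percent inhibition of each kinase was measured with the inhibitor at 0.1 µM and at 1 µM, as part of a 200-kinase human selectivity panel.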

The next experiment addresses T2, LOK (Homo sapiens, UniProt O94804).
T2 construct: purchased Nanosyn (enzymatic panel); SGC in-house recombinant human kinases (DSF panel); Invitrogen (ALK1-6)
The essentials:
as §1

For another experiment, the target named is T3, CK2 (Homo sapiens, UniProt P68400).
T3 construct: purchased Nanosyn (enzymatic panel); SGC in-house recombinant human kinases (DSF panel); Invitrogen (ALK1-6)
The method, boiled down: as §1

The next experiment addresses T4, PLK1 (Homo sapiens, UniProt P53350).
T4 construct: purchased Nanosyn (enzymatic panel); SGC in-house recombinant human kinases (DSF panel); Invitrogen (ALK1-6)
The essentials:
as §1

For another experiment, the target named is T5, PKCη (Homo sapiens, UniProt P24723).
T5 construct: purchased Nanosyn (enzymatic panel); SGC in-house recombinant human kinases (DSF panel); Invitrogen (ALK1-6)
The method, boiled down: as §1

Another experiment deals with T6, BRSK1 (Homo sapiens, UniProt Q8TDC3).
T6 construct: purchased Nanosyn (enzymatic panel); SGC in-house recombinant human kinases (DSF panel); Invitrogen (ALK1-6)
T6 sequence (Q8TDC3 1-778): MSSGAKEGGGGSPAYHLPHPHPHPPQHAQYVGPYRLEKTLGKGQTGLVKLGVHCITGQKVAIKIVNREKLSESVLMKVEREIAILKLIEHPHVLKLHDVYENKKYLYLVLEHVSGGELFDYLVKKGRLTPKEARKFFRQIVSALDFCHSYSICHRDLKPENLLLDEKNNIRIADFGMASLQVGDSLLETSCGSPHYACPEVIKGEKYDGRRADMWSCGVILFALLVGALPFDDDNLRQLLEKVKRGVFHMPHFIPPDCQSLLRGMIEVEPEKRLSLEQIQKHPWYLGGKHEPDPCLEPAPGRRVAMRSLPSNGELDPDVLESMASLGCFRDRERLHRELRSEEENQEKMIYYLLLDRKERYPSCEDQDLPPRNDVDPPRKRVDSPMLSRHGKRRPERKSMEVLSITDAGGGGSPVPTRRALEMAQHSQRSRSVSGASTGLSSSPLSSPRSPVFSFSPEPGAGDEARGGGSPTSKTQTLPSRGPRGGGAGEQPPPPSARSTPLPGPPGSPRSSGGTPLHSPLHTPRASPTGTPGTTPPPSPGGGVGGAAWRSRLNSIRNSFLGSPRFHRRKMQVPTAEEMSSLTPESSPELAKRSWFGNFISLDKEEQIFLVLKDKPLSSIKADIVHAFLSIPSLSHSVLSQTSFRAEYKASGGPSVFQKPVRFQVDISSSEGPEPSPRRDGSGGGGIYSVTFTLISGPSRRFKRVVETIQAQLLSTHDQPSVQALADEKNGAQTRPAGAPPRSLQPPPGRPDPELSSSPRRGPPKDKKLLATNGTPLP
The method, boiled down:
as §1

In the next experiment the target is T7, MSSK1 (Homo sapiens, UniProt Q9UPE1).
T7 construct: purchased Nanosyn (enzymatic panel); SGC in-house recombinant human kinases (DSF panel); Invitrogen (ALK1-6)
The method, boiled down:
as §1

In the next experiment the target is T8, DYRK1A (Homo sapiens, UniProt Q13627).
T8 construct: purchased Nanosyn (enzymatic panel); SGC in-house recombinant human kinases (DSF panel); Invitrogen (ALK1-6)
The essentials:
as §1

The target of the next experiment is T9, PRKG1 (Homo sapiens, UniProt Q13976).
T9 construct: purchased Nanosyn (enzymatic panel); SGC in-house recombinant human kinases (DSF panel); Invitrogen (ALK1-6)
T9 sequence (Q13976 1-671): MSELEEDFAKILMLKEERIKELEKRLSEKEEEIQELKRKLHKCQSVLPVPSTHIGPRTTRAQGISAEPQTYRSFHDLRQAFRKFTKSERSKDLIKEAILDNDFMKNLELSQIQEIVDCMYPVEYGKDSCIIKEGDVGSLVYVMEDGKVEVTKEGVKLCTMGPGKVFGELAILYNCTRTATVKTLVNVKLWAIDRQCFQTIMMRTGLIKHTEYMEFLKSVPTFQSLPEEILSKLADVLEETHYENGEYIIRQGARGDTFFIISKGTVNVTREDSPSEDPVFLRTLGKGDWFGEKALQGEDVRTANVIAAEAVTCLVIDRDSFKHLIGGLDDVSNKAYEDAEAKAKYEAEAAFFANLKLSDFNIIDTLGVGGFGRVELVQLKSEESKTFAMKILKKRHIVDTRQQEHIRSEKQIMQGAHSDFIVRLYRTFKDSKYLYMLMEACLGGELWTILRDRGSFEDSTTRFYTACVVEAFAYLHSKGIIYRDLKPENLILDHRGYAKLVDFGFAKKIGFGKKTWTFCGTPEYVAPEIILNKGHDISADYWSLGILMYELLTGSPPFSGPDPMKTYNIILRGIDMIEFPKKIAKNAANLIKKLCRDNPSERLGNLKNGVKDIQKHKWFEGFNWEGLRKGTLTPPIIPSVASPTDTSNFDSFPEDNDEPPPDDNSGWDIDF
The method, boiled down: as §1

The target in another experiment is T10, MARK3 (Homo sapiens, UniProt P27448).
T10 construct: purchased Nanosyn (enzymatic panel); SGC in-house recombinant human kinases (DSF panel); Invitrogen (ALK1-6)
The method, boiled down:
as §1

The next experiment has as its target T11, PYK2 (Homo sapiens, UniProt Q14289).
T11 construct: purchased Nanosyn (enzymatic panel); SGC in-house recombinant human kinases (DSF panel); Invitrogen (ALK1-6)
The essentials:
as §1

T2 sequence (O94804 whole entry): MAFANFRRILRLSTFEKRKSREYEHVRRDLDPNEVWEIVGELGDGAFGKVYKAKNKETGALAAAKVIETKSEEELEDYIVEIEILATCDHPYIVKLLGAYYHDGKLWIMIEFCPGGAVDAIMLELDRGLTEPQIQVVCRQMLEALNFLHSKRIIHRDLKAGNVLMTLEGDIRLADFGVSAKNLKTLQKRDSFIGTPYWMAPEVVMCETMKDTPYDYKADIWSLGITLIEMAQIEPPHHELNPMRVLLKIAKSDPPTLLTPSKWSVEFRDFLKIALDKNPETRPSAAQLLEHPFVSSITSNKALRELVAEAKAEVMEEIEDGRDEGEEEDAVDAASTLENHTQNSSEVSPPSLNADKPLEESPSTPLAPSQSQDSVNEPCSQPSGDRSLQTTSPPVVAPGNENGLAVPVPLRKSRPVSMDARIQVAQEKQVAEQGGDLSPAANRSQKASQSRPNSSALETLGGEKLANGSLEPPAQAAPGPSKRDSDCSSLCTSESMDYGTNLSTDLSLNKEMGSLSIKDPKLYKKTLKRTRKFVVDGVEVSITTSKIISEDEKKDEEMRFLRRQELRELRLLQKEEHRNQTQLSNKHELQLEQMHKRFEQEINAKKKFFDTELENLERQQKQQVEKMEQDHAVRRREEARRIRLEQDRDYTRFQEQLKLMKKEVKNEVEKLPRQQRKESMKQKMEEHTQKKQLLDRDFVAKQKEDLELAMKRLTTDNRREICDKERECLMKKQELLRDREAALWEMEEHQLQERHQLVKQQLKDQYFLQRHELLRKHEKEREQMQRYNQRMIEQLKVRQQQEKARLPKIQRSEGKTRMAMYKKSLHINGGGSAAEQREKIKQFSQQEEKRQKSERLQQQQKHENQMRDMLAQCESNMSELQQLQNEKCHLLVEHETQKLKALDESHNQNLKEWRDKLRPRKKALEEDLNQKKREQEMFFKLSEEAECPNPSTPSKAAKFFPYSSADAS
T5 sequence (P24723 whole entry): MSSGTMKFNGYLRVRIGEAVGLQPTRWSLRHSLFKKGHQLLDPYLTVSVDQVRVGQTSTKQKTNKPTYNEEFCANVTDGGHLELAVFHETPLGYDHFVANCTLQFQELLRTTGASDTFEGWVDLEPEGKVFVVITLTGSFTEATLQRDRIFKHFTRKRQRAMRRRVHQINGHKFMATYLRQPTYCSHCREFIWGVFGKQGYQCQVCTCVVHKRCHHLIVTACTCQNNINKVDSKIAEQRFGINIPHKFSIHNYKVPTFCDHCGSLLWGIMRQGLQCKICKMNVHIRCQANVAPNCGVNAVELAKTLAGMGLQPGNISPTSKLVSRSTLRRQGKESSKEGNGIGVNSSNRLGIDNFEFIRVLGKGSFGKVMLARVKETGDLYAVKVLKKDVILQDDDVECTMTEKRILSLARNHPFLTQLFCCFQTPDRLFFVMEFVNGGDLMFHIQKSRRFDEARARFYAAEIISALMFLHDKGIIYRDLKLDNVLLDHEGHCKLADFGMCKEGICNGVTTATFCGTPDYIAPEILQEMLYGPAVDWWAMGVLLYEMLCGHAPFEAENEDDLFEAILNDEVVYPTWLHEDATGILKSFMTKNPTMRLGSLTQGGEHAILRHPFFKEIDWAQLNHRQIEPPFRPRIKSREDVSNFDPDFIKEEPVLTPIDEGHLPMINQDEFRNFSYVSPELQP
T7 sequence (Q9UPE1 whole entry): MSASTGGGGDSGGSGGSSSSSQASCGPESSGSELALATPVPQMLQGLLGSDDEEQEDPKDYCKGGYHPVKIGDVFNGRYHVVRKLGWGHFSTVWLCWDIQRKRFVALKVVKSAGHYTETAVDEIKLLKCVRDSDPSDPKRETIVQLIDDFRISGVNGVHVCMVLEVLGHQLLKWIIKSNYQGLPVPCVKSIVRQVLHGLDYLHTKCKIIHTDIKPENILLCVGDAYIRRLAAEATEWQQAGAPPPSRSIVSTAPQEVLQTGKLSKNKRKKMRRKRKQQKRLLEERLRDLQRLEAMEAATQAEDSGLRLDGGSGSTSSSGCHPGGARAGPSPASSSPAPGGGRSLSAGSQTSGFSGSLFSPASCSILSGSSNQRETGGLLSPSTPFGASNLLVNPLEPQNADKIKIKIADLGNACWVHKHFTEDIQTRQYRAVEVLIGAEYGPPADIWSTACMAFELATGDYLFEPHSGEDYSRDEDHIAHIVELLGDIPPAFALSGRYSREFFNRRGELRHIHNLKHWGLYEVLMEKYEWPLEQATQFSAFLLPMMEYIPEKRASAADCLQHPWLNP
T3 sequence (P68400 whole entry): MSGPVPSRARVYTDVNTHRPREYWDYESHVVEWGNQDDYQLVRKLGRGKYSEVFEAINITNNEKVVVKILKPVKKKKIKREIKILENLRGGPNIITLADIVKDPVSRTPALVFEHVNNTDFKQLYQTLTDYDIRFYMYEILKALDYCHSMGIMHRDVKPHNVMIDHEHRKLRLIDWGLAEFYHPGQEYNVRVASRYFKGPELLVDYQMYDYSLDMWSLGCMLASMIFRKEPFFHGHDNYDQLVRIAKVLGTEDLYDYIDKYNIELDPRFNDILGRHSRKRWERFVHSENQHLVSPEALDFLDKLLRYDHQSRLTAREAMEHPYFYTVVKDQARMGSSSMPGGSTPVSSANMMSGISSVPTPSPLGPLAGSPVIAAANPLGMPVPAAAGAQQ
T3 sequence (P67870 whole entry partner): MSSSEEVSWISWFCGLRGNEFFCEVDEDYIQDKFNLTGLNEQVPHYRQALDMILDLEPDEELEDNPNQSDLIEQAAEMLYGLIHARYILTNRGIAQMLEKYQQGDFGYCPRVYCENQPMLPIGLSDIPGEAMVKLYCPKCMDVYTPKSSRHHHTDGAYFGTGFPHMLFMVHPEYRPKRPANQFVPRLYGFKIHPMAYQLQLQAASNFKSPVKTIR
T4 sequence (P53350 whole entry): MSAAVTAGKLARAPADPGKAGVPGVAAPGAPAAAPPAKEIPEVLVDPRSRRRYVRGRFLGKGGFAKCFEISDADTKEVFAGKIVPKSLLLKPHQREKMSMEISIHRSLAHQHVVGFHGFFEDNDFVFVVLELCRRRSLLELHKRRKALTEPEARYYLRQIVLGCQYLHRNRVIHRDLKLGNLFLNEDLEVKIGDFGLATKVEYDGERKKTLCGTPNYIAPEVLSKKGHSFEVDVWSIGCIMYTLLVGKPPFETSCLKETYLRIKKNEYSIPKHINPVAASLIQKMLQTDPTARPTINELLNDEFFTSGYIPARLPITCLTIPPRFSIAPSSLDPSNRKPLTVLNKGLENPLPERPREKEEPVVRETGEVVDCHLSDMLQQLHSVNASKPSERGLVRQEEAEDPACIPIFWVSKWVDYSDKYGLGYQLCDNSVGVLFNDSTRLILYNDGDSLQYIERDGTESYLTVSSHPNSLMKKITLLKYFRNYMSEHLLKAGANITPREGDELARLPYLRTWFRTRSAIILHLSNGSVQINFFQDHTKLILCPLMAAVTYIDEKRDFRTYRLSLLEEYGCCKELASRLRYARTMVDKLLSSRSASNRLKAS
T11 sequence (Q14289 whole entry): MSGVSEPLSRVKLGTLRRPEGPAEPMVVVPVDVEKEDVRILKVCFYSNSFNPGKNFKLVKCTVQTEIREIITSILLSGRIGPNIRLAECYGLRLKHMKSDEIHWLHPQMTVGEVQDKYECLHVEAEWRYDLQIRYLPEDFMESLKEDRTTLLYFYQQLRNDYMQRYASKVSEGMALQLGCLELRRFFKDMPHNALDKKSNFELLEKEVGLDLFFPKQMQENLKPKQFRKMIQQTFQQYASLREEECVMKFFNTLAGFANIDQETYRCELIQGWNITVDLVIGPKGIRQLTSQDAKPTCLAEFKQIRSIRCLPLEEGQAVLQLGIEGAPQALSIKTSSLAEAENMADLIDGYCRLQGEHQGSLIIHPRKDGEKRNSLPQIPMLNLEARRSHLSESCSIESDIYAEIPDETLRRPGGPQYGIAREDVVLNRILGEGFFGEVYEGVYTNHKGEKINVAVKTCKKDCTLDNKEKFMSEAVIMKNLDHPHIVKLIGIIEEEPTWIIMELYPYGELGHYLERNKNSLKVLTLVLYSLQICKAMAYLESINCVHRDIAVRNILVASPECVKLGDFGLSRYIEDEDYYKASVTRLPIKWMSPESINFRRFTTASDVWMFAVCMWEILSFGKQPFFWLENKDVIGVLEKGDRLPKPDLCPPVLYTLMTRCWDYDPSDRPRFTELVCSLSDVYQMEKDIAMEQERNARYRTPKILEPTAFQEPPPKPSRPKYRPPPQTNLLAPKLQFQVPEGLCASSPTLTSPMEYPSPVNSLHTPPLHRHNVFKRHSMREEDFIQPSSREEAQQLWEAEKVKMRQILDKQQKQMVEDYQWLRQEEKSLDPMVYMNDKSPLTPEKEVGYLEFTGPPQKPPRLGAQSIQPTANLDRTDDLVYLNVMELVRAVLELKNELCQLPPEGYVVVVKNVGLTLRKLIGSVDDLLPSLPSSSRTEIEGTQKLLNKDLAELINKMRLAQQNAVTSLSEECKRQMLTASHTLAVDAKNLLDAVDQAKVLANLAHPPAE

What is called inhibition is the relative decrease from the control value, in per cent. For `COc1cc(-c2cc(-c3cccc(O)c3)cnc2N)cc(OC)c1OC` [K02288, 3-[6-amino-5-(3,4,5-trimethoxy-phenyl)-pyridin-3-yl]-phenol], the inhibition at 0.1 µM on AURKC is -1%; on LOK, 3.5%; on CK2 it was 6.2%; on PLK1, -2%; at PKCη, -2%; at BRSK1, 2.3%. The inhibition at 0.1 µM at MSSK1 is 1.8%; on DYRK1A it was 1.9%; on PRKG1, 0.3%; at MARK3, 2.6%; at PYK2, -1%. Besides, the inhibition at 1 µM at AURKC is 3.2%; at LOK, 25%; at CK2, 2.8%; at PLK1 it was -2%; at PKCη, -4%; on BRSK1, 0%. Also, the inhibition at 1 µM at MSSK1 amounted to 0%; at DYRK1A, 4.1%; on PRKG1 it was 3.3%; on MARK3, 5.6%; at PYK2, 0%.
`c1ccc2c(-c3cnn4cc(-c5ccc(N6CCNCC6)cc5)cnc34)ccnc2c1` [LDN-193189]: the inhibition at 0.1 µM at AURKC is 4.2%; on LOK it was 8.3%; at CK2, 0.7%; at PLK1, 0.8%; on PKCη, 2.2%; on BRSK1, 3%. Also, the inhibition at 0.1 µM on MSSK1 was -3%; at DYRK1A, 10%; at PRKG1, 1%; at MARK3, 11%; at PYK2 it was 4.6%. Moreover, the inhibition at 1 µM at AURKC was 25%; at LOK, 38%; at CK2 it was 4.2%; on PLK1, 1.3%; on PKCη it was -2%; at BRSK1 it was 17%. The inhibition at 1 µM amounted to 1.5% on MSSK1; 53% at DYRK1A; 1.2% at PRKG1; 63% at MARK3; 9% at PYK2.

Source of the values: article PMC3639963, “A New Class of Small Molecule Inhibitor of BMP Signaling” (PLoS ONE, 2013).
